# US20150174145A1, “Pharmaceutical compounds with the structure of ionic salts with antibiotic and anticancer action” (priority 2013, published 2015)
# Like-named read-outs stand apart in the source and are kept apart here.
# Columns and labels:
# E. coli TEM CTX M9 = assay: Minimum inhibitory concentration, ampicillin resistant strains; type: cell-based; conditions: for Minimum inhibitory concentrations: E. coli TEM CTX M9, ampicillin resistant
# Description: (§1) Each one of the 24 combinations of the ionic liquids were tested with following 9 bacteria: • Escherichia coli ATCC25922 • Staphylococcus aureus ATCC25923 • Klebsiella pneumonia • Staphylococcus epidermidis • Enterococcus fecalis • E. coli Tem CTXM9 • E. coli CTXM2 • E. coli AmpCMox2 • Saccharomyces cerevisiae PYCC 4072
# (§2) These bacteria were tested in Vitek2 systems from bioMérieux. Bacteria were grown on Trypticase soy agar for 24 hours at 37° C. prior to each test. The bacteria assays were made in Tryptic Soy Broth.
# E. coli CTX M2 = assay: as above; type: cell-based; conditions: for Minimum inhibitory concentrations: E. coli CTX M2, ampicillin resistant
# Description: as §1, §2
# E. coli ATCC 25922 = assay: Minimum inhibitory concentration, ampicillin sensitive strains; type: cell-based, Escherichia coli; conditions: for Minimum inhibitory concentrations: E. coli ATCC 25922, Gram-negative, ampicillin sensitive
# Description: as §1, §2
# E. fecalis = assay: as above; type: cell-based, Enterococcus fecalis; conditions: for Minimum inhibitory concentrations: E. fecalis, Gram-positive, ampicillin sensitive
# Description: as §1, §2
# E. coli AmpC MOX2 = assay: microbe, parasite or virus in culture; type: cell-based; conditions: for Minimum inhibitory concentrations: E. coli AmpC MOX2, ampicillin resistant
# Description: as §1, §2
# K. pneumoniae = assay: Minimum inhibitory concentration, ampicillin sensitive strains; type: cell-based, Klebsiella pneumonia; conditions: for Minimum inhibitory concentrations: K. pneumoniae, Gram-negative, ampicillin sensitive
# Description: as §1, §2
# S. aureus ATCC 25923 = assay: as above; type: cell-based, Staphylococcus aureus; conditions: for Minimum inhibitory concentrations: S. aureus ATCC 25923, Gram-positive, ampicillin sensitive
# Description: as §1, §2
# S. epidermis = assay: as above; type: cell-based, Staphylococcus epidermidis; conditions: for Minimum inhibitory concentrations: S. epidermis, Gram-positive, ampicillin sensitive
# Description: as §1, §2
# [1] = tested on: HepG2 (hepatocellular liver carcinoma cell); assay: MTT cellular viability/proliferation, cancer cell lines; type: cell-based, human; conditions: HepG2, MTT assay
# Description: (§3) At about 70-80% confluence, cells were enzymatically detached with 0.05% trypsin and 0.5 mM EDTA and seeded at 10^4 cells cm^−2.
# (§4) After an attachment period of 24 hours, the culture medium was renewed, and supplemented with different concentrations (0.005-500 mM) of the ampicillin derived ionic liquid. Cell cultures were maintained in a 5% CO2 humidified atmosphere at 37° C.
# (§5) Cellular viability/proliferation was assessed by the MTT assay at days 1, 3 and 5 of the culture. This assay is based on the reduction of 3-(4,5-dimethylthiazol-2-yl)-2,5-diphenyltetrazolium bromide (MTT) to a purple formazan product by viable cells.
# (§6) Shortly, cultured cells were incubated at 37° C. with 0.5 mg ml −1 of MTT for 4 hours. The culture medium was then removed; the stained product dissolved with dimethylsulfoxide, and absorbance determined at 550 nm in an ELISA plate rewader. Results were expressed as absorbance per cm2.
# (§7) The values of the […] (IC50) and the median lethal dose (LD50) were obtained from nonlinear regression analysis of concentration effect curves using the GGraphPad Prism Software.
# (§8) It is used to measure the efficacy of a compound in inhibiting any biochemical or biological function.
# [2] = tested on: RKO (colon cancer cell line); assay: as above; type: cell-based, human; conditions: MTT assay
# Description: as §3, §4, §5, §6, §7, §8
# [3] = tested on: MG63 (osteosarcoma cell line); assay: as above; type: cell-based, human; conditions: MG63, MTT assay
# Description: as §3, §4, §5, §6, §7, §8
# SF (skin fibroblasts) = assay: MTT cellular viability/proliferation, primary human cells; type: cell-based; conditions: MTT assay
# Description: as §3, §4, §5, §6, §7, §8
# [4] = tested on: gingival fibroblasts (GF); assay: as above; type: cell-based; conditions: MTT assay
# Description: as §3, §4, §5, §6, §7, §8
# [5] = tested on: T47D (ductal breast epithelial tumour cell line); assay: cells; type: cell-based
# Description: as §3, §4, §5, §6, §7, §8
# [6] = tested on: PC3 (prostate cancer cell line); assay: MTT cellular viability/proliferation, cancer cell lines; type: cell-based, human; conditions: PC3, MTT assay
# Description: as §3, §4, §5, §6, §7, §8
SMILES,Minimum inhibitory concentrations (E. coli TEM CTX M9) [mM],Minimum inhibitory concentrations (E. coli CTX M2) [mM],Minimum inhibitory concentrations (E. coli ATCC 25922) [mM],Minimum inhibitory concentrations (E. fecalis) [mM],Minimum inhibitory concentrations (E. coli AmpC MOX2) [mM],Minimum inhibitory concentrations (K. pneumoniae) [mM],Minimum inhibitory concentrations (S. aureus ATCC 25923) [mM],Minimum inhibitory concentrations (S. epidermis) [mM],IC50 [2] [nM],IC50 [3] [nM],IC50 [4] [nM],IC50 [6] [nM],also measured
CCCCCCCCCCCCCCCC[n+]1ccccc1.[Cl-] [[C16Pyr][Cl]],0.5,>5,0.5,0.5,>5,2.5,0.5,2.5,,,,,
CC1(C)S[C@@H]2[C@H](NC(=O)[C@H](N)c3ccccc3)C(=O)N2[C@H]1C(=O)[O-].C[n+]1ccn(CCO)c1 [[C2OHMIM][Amp]],>5,>5,5,5,5,>5,>5,2.5,359,738,462,,"IC50 [1]: 319 nM; IC50 (SF (skin fibroblasts)): 5080 nM; IC50 ([5]; T47D, MTT assay): 146 nM"
"CC1(C)S[C@@H]2[C@H](NC(=O)[C@H](N)c3ccccc3)C(=O)N2[C@H]1C(=O)[O-].CC[N+](CC)(CC)CC [[TEA][Amp], tetraethyl ammonium salt of Ampicillin]",>5,>5,>5,>5,>5,>5,>5,>5,56700,30,,35600,IC50 [5]: 42 nM
C[N+](C)(C)CCO.[Cl-] [[Cholin][Cl]],>5,>5,>5,>5,>5,>5,2.5,>5,,,,,
CC1(C)S[C@@H]2[C@H](NC(=O)[C@H](N)c3ccccc3)C(=O)N2[C@H]1C(=O)[O-].CCCCCCCCCCCCCCCC[n+]1ccccc1 [[C16Pyr][Amp]],0.005,0.05,0.5,0.005,>5,0.05,0.005,0.005,226,11,12,,"IC50 (SF (skin fibroblasts)): 32 nM; IC50 ([5]; T47D, MTT assay): 5 nM"
"CC[N+](CC)(CC)CC [[TEA][Br], Tetraethylammonium bromide]",,,,,,,,,,,,,"MIC (E. coli TEM CTX M9; Escherichia coli, read-out: Minimum inhibitory concentrations): > 5 mM; MIC (E. coli CTX M2; Escherichia coli, CTXM2, read-out: Minimum inhibitory concentrations): 2.5 mM; MIC (E. coli ATCC 25922; Escherichia coli, ATCC25922, read-out: Minimum inhibitory concentrations): > 5 mM; MIC (E. fecalis; Enterococcus, read-out: Minimum inhibitory concentrations): > 5 mM; MIC (E. coli AmpC MOX2; Escherichia coli, AMPCMOX2, read-out: Minimum inhibitory concentrations, E. coli AmpC MOX2, ampicillin resistant): > 5 mM; MIC (K. pneumoniae; Klebsiella pneumoniae, read-out: Minimum inhibitory concentrations): > 5 mM; MIC (S. aureus ATCC 25923; Staphylococcus aureus, ATCC25923, read-out: Minimum inhibitory concentrations): 2.5 mM; MIC (S. epidermis; Staphylococcus epidermidis, read-out: Minimum inhibitory concentrations): > 5 mM"
CCn1cc[n+](C)c1.[Br-] [[EMIM][Br]],5,>5,>5,>5,>5,>5,0.05,5,,,,,
CC1(C)S[C@@H]2[C@H](NC(=O)[C@H](N)c3ccccc3)C(=O)N2[C@H]1C(=O)[O-].[Na+] [[Na][Amp]] [sodium ampicillin],>5,>5,0.05,0.05,>5,2.5,0.005,0.05,2410,,109000,597,
CC1(C)S[C@@H]2[C@H](NC(=O)[C@H](N)c3ccccc3)C(=O)N2[C@H]1C(=O)[O-].C[N+](C)(C)CCO [[Cholin][Amp]],>5,>5,>5,>5,>5,>5,>5,>5,,17,,982,IC50 [1]: 1620 nM; IC50 (SF (skin fibroblasts)): 48500 nM
C[n+]1ccn(CCO)c1.[Cl-] [[C2OHMIM][Cl]],>5,2.5,5,5,5,>5,>5,5,,,,,
"CCCCCCCCCCCCCC[P+](CCCCCC)(CCCCCC)CCCCCC.[Cl-] [[P6,6,6,14][Cl]]",2.5,5,2.5,>5,>5,2.5,2.5,2.5,,,,,
CC1(C)S[C@@H]2[C@H](NC(=O)[C@H](N)c3ccccc3)C(=O)N2[C@H]1C(=O)[O-].CC[n+]1ccn(C)c1 [[EMIM][Amp]],>5,>5,>5,>5,>5,>5,>5,>5,269,,853,30000,
